Reference: PMC7118210 (Frontiers in Pharmacology, 2020)

Key:
[1] = Metabolites in rat kidney microsomes (system III-rat); format: in vitro ADME, Sprague-Dawley rat
Description: (§1) Then, NADPH-B (10 μl) was added and incubated for 2 h. […] Then, UDPGA (50 μl) was added and incubated for 2 h. […] Then, UDPGA (50 μl) was added and incubated for 2 h. In addition, the naringenin solution (1 mM, 10 μl) was evaluated in rat systems I, II, and III as above.
The incubated solution (500 μl) of systems I-rat, II-rat, III-rat, I-human, and II-human were extracted with ethyl acetate (500 μl) for at least 3 min by vortexing and centrifuged for 10 min at 13,000 rpm and 4°C. The extraction process described above was performed twice and all supernatants were transferred into centrifuge tubes, dried with N2, and dissolved with methanol-water (1:1, v/v). All samples were injected into a UPLC/Q-TOF-MS system consisting of a Waters Acquity ultra performance liquid chromatography (UPLC) coupled with a Micromass micro™ quadrupole time-of-flight mass spectrometry (Q-TOF-MS) system (Waters Corp., Milford, MA, USA), equipped with an electrospray ionization source, and controlled by the MassLynx (v. 4.1) software. Separation was performed on a Waters Acquity UPLC BEH C18 column (50 mm × 2.1 mm, 1.7 μm) at 40°C. […] Compounds were detected with accurate mass using leucine enkephalin for mass correction at 554.2615 (m/z) in negative ionization mode.

[2] = Metabolites in rat liver microsomes (systems I-rat, II-rat); format: in vitro ADME, Sprague-Dawley rat
Description: as §1
(§2) The incubated solution (500 μl) of systems I-rat, II-rat, III-rat, I-human, and II-human were extracted with ethyl acetate (500 μl) for at least 3 min by vortexing and centrifuged for 10 min at 13,000 rpm and 4°C. The extraction process described above was performed twice and all supernatants were transferred into centrifuge tubes, dried with N2, and dissolved with methanol-water (1:1, v/v). All samples were injected into a UPLC/Q-TOF-MS system consisting of a Waters Acquity ultra performance liquid chromatography (UPLC) coupled with a Micromass micro™ quadrupole time-of-flight mass spectrometry (Q-TOF-MS) system (Waters Corp., Milford, MA, USA), equipped with an electrospray ionization source, and controlled by the MassLynx (v. 4.1) software. Separation was performed on a Waters Acquity UPLC BEH C18 column (50 mm × 2.1 mm, 1.7 μm) at 40°C. The mobile phase consisted of 0.1% formic acid (v/v) in water (A) and methanol (B) using a linear gradient of 95% to 60% A (0–25 min), 60% to 40% A (25–35 min), 40% to 10% A (35–40 min), 10% A (40–43 min), 10% to 95% A (43–44 min), and 95% A (44–45 min). The injection volume was 5 μl with flow rate of 0.2 ml min^-1. The Q-TOF-MS worked in a full scan mode (100–1,200 m/z), selection ion mode, and product ion mode, in negative ion mode, respectively. The conditions were as follows: capillary voltage 3,000 V, sample cone voltage 30 V, extraction cone voltage 2.0 V, source temperature 100°C, desolvation temperature 350°C, cone gas (N2) flow rate of 40 L/h, desolvation gas (N2) flow rate of 700 L/h, low collision energy 6.0 eV, and high collision energy 20–80 eV. Compounds were detected with accurate mass using leucine enkephalin for mass correction at 554.2615 (m/z) in negative ionization mode.

[3] = Stability of naringin and naringenin in human feces with active enzymes; format: in vitro ADME; settings: human feces in normal saline, 37°C for 12 h (over night)
Description: Next, 9-fold normal saline, instead of ninefold methanol-normal saline (2:1, v/v), was added to maintain enzyme activity in the feces. […] These samples were maintained at 37°C for 12 h.

[4] = Metabolites in human liver microsomes (systems I-human, II-human); format: in vitro ADME
Description: Then, NADPH-B (10 μl) was added and the mixed solution incubated for 2 h. […] Next, UDPGA (50 μl) was added and the mixed solution incubated for 2 h. In addition, the naringenin solution (1 mM, 10 μl) was evaluated in human systems I and II as above.
as §2

CYP 1A2 = biological target: T1, CYP 1A2 (Homo sapiens, UniProt P05177); test: CYP enzyme pathway, human liver microsomes with α-naphthoflavone (system III-human); format: in vitro ADME; settings: CYP1A2; of six metabolites measured in system III-human
T1 construct: human liver microsomes (2.25 μl); tissue RILD Research Institute for Live Diseases (Shanghai, China) Co.Ltd; host or cells: human liver microsomes, 10-donor pooled
T1 sequence (P05177 whole entry): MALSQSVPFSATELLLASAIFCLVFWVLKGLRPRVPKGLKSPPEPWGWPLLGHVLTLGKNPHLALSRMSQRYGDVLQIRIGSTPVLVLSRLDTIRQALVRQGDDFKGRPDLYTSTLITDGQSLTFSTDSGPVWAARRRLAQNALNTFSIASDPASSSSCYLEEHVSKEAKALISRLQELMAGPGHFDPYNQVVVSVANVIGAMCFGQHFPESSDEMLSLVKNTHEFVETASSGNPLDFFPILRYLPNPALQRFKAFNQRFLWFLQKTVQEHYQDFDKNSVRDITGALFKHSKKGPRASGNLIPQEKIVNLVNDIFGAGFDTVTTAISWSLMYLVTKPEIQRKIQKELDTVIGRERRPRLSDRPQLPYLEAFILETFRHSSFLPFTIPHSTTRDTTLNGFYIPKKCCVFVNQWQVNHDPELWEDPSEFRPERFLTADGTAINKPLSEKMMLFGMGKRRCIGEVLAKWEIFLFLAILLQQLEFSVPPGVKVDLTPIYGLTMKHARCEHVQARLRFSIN
Description: (§3) Five single inhibitor working solutions were separately added. Their concentrations were as follows: α-naphthoflavone (0.04 mM) for CYP 1A2, sulfaphenazole (0.8 mM) for CYP 2C9, (+/-)-N-3-benzylnirvanol (0.8 mM) for CYP 2C19, quinidine (0.08 mM) for CYP 2D6, and ketoconazole (0.04 mM) for CYP 3A4/5. All protein concentrations were 0.15 mg ml^-1 in the incubation system, except 0.3 mg ml^-1 for the sulfaphenazole working solution. Then, NADPH (10 mM, 30 μl) was added and the mixed solution incubated for 45 min. Finally, cold acetonitrile (600 μl, containing 100 ng ml^-1 flufenamic acid) was added to every tube, mixed by vortexing, centrifuged for 30 min at 14,000 g and 4°C, and the supernatants transferred into centrifuge tubes and injected into the UHPLC/MS/MS system as described above. Incubations were run in triplicate experiments.
(§4) To analyze compounds in incubation system III-human, a Luna C18 column (Phenomenex Inc., Torrance, CA, USA; 2.0 mm × 50 mm, 5 μm) was used at 40°C. The mobile phase consisted of 0.1% formic acid (v/v) in water (A) and 0.1% formic acid in acetonitrile (B). […] The injection volume was 10 μl with flow rate of 0.2 ml min^-1. The compounds were detected by multiple reaction monitoring in the negative ion electrospray mode.

CYP 2C19 = biological target: T2, CYP 2C19 (Homo sapiens, UniProt P33261); test: CYP enzyme pathway, human liver microsomes with (+/-)-N-3-benzylnirvanol (system III-human); format: in vitro ADME; settings: CYP2C19; of six metabolites measured in system III-human
T2 construct: human liver microsomes (2.25 μl); tissue RILD Research Institute for Live Diseases (Shanghai, China) Co.Ltd; host or cells: human liver microsomes, 10-donor pooled
T2 sequence (P33261 whole entry): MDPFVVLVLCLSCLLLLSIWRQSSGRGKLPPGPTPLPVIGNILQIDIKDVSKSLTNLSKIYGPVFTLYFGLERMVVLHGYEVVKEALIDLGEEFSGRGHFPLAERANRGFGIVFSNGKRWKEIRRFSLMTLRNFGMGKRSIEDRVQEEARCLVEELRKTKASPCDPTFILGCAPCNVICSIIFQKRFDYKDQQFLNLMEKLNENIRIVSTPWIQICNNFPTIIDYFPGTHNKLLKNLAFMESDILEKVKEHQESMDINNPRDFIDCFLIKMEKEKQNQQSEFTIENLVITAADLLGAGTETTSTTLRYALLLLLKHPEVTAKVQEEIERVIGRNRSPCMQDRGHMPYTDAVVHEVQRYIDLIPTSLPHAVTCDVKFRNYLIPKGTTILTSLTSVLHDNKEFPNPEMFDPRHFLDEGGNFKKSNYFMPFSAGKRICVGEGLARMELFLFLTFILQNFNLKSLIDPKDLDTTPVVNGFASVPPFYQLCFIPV
Description: as §3, §4

CYP 2C9 = biological target: T3, CYP 2C9 (Homo sapiens, UniProt P11712); test: CYP enzyme pathway, human liver microsomes with sulfaphenazole (system III-human); format: in vitro ADME; settings: CYP2C9, major metabolic enzyme; of six metabolites measured in system III-human
T3 construct: human liver microsomes (2.25 μl); tissue RILD Research Institute for Live Diseases (Shanghai, China) Co.Ltd; host or cells: human liver microsomes, 10-donor pooled
T3 sequence (P11712 whole entry): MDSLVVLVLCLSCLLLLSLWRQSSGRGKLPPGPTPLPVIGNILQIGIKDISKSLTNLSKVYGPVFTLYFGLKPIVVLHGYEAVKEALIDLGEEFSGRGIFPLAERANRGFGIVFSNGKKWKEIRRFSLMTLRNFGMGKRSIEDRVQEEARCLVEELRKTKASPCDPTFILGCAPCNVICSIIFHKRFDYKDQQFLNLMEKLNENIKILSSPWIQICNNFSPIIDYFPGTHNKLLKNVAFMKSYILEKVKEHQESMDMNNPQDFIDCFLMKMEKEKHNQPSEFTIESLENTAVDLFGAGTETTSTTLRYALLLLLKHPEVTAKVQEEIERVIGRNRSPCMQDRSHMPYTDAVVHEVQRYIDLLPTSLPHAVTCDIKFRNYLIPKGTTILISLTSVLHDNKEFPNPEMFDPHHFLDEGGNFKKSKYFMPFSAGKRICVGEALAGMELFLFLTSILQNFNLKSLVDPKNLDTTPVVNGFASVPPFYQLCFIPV
Description: as §3, §4

CYP 3A4/5 = test: CYP enzyme pathway, human liver microsomes with ketoconazole (system III-human); format: in vitro ADME; settings: CYP3A4/5; of six metabolites measured in system III-human
Description: as §3, §4

[5] = set-up: method as in Li P. et al., 2013; settings: Sprague-Dawley rats, 16 g kg^-1; ref Li P. et al., 2013; cited from earlier work

Row | SMILES | found in rat kidney microsomes, incubation of G/S [1] | found in rat liver microsomes, incubation of naringenin (S) [2] | amount detected in feces relative to the amount added [3] | found in human liver microsomes, incubation of naringenin (S) [4] | metabolites the enzyme contributes to (CYP 1A2) | metabolites the enzyme contributes to (CYP 2C19) | metabolites the enzyme is responsible for (CYP 2C9) | metabolites the enzyme contributes to (CYP 3A4/5) | toxicity after a single p.o. bolus dose [5]
1 | O=C1C[C@@H](c2ccc(O)cc2)Oc2cc(O)cc(O)c21 [naringenin, Naringenin] | + | + | less than 20% | + | – | – | – | – | –
2 | C[C@@H]1O[C@@H](O[C@H]2[C@H](Oc3cc(O)c4c(c3)O[C@H](c3ccc(O)cc3)CC4=O)O[C@H](CO)[C@@H](O)[C@@H]2O)[C@H](O)[C@H](O)[C@H]1O [naringin, Naringin] | – | – | – | – | one metabolite | four metabolites | six metabolites | two metabolites | no apparent toxicity
